{"source": "patent US12527849B2", "about": "“Apparatus for determining administration form of a composition of an engineered virus-based nanoparticle for a treatment of an autoimmune condition” (Diamante Srl, priority 2021, dated 2026)", "type_in_all_cases": "in vivo", "key": {"MCP-1": {"test_system": "MCP-1", "assay": "Pro-inflammatory cytokines in sera of CIA Collagen mice (ELISA, day 58): MCP-1", "settings": "Dexamethasone oral 1 mg/kg, 20 times between day 28 and 57", "method": "(§1) Critical administration 124 disclosed herein is further described below. Q5D represents administration 5 days a part. TBSV·pLIp1 and wt TBSV shown in Table 1 may include liquid form that are not sterile and stored in −20° C. TBSV·pLIp1 may be given at the dose of 50 μG/100 μL Male DBA/1J mice (8 weeks; Envigo, Italy) may be used for these studies. Mice may be housed in individual cages (two for each group) and maintained under a 12:12 light-dark cycle at 21° C.±1° C. and 50%±5% humidity. The animals may be acclimated to their environment for 1 week and had ad libitum access to tap water and standard rodent diet. All animal experiments may be complied with regulations in Italy (D.M. 116192), Europe (O.J of E.C. L 358/112/18/1986), and the United States (Animal Welfare Assurance Number A5594-01, Department of Health and Human Services, USA). […] Arthritis was assessed by using qualitative severity score system and hind paw volume (mL) measured by a plethysmometer on day 20, 22, 24, 26, 28, 30, 32, 34, 36, 38, 40, 42, 44, 46 48, 50, 52, 54, 56 and 58. Body weight was recorded on day 0, 6, 13, 16, 18, 20, 22, 24, 26, 28, 30, 32, 34, 36, 38, 40, 42, 44, 46, 50, 52, 54, 56 and 58. […]"}, "TGF-β1": {"test_system": "TGF-β1", "assay": "Cytokine ELISA in CIA mice, day 60: TGF-β1", "settings": "serum pooled from five CIA mice", "text": "With continued reference to FIG. 1, in some embodiments, administration 116 may be done to an animal. As a non-limiting example, the animal may include a mouse, a fish, a rabbit, human, and the like. As a non-limiting example, administration 116 of composition of the engineered virus-based nanoparticle for a treatment of an autoimmune condition may be done to dilute, brown, and non-agouti (DBA) mice based on their susceptibility to collagen-induced arthritis (CIA). Female DBA/1 mice 6 to 8 weeks of age may be maintained under specific pathogen-free conditions. CIA may be induced by the intradermal tail base injection of 100 μg of chicken type II collagen (Sigma-Aldrich) as previously described. Five mice per group may be immunized on days 0 and 21 to induce arthritis. The onset of disease may be confirmed on the day that swelling or erythema may be observed in any paw, typically 4 to 10 days after the second immunization. Each experimental group may be treated seven times, 5 days apart, starting from day 28 after the first immunization, with intraperitoneal injections of saline (200 μI per mouse), TBSV·pLIp1, TBSV·pFADK2, pLIp1+IFA, and pFADK2+IFA (all 50 μg per mouse in 200 μl) or dexamethasone (5 μg per mouse in 200 μl). […] CIA may be assessed using a macroscopic score system based on the visual identification of arthritic limbs."}, "IFN-γ": {"test_system": "IFN-γ", "assay": "Pro-inflammatory cytokines in sera of CIA Collagen mice (ELISA, day 58): IFN-γ", "settings": "Dexamethasone oral 1 mg/kg, 20 times between day 28 and 57", "method": "as §1"}, "TNF-α": {"test_system": "TNF-α", "assay": "Pro-inflammatory cytokines in sera of CIA Collagen mice (ELISA, day 58): TNF-α", "settings": "Dexamethasone oral 1 mg/kg, 20 times between day 28 and 57", "method": "as §1"}}, "data": [{"smiles": "C[C@@H]1C[C@H]2[C@@H]3CCC4=CC(=O)C=C[C@]4(C)[C@@]3(F)[C@@H](O)C[C@]2(C)[C@@]1(O)C(=O)CO", "note": "[Dexamethasone, dexamethasone]", "values": [{"measurement": "MCP-1, % of reduction vs CIA Collagen", "setting": "MCP-1", "result": 30.57, "unit": "%"}, {"measurement": "TGF-β1", "setting": "TGF-β1", "result": 10385.0, "unit": "pg/mL"}, {"measurement": "IFN-γ, % of reduction vs CIA Collagen", "setting": "IFN-γ", "result": 37.39, "unit": "%"}, {"measurement": "TNF-α, % of reduction vs CIA Collagen", "setting": "TNF-α", "result": 12.02, "unit": "%"}]}]}
